Results: DBAASP

Tests used:
Experiment in all cases: ≥ marks a high value that may be exact or a test limit, other limits are often not marked, values filed in µg/mL are converted to µM
[1] = system: Batrachochytrium dendrobatidis
[2] = system: Staphylococcus aureus BCRC 10781
[3] = system: Staphylococcus xylosus BCRC 12930
[4] = system: Klebsiella aerogenes BCRC 10370
[5] = system: Staphylococcus aureus BCRC 10780
[6] = system: Vibrio alginolyticus BCRC 12829
[7] = system: Listeria monocytogenes BCRC 14845
[8] = system: Streptococcus equinus BCRC 14729
[9] = system: Vibrio harveyi
[10] = system: Enterobacter cloacae BCRC 10401
[11] = system: Vibrio parahaemolyticus BCRC 10806
[12] = system: Vibrio anguillarum serotype O1
[13] = system: Yersinia enterocolitica BCRC 13999
[14] = system: Escherichia coli BCRC 10675
[15] = system: Lactococcus garvieae
[16] = system: Vibrio parahaemolyticus
[17] = system: Streptococcus iniae
[18] = system: Klebsiella oxytoca BCRC 13985
[19] = system: Pseudomonas aeruginosa BCRC 10944
[20] = system: Vibrio alginolyticus
[21] = system: Shigella flexneri ATCC 203
[22] = system: Bacillus subtilis ATCC 6633
[23] = system: Pseudomonas aeruginosa ATCC 9027
[24] = system: Escherichia coli ATCC 2592
[25] = system: Staphylococcus aureus
[26] = system: Candida albicans ATCC 36232
[27] = system: Staphylococcus aureus ATCC 6538
[28] = system: Corynebacterium diphtheriae ATCC 8024
[29] = system: Micrococcus luteus ATCC 9341
[30] = system: Staphylococcus epidermidis ATCC 12228
[31] = system: Micrococcus luteus A270
[32] = system: Bacillus megaterium
[33] = system: Listeria monocytogenes
[34] = system: Pediococcus acidilactici
[35] = system: Alcaligenes faecalis
[36] = system: Bacillus thuringiensis
[37] = system: Serratia marcescens Db11
[38] = system: Salmonella typhimurium
[39] = system: Staphylococcus saprophyticus
[40] = system: Klebsiella pneumoniae
[41] = system: Enterobacter cloacae beta-12
[42] = system: Escherichia coli D22
[43] = system: Pseudomonas aeruginosa ATCC 82118
[44] = system: Aerococcus viridans
[45] = system: Bacillus subtilis QB935
[46] = system: Escherichia coli PCM 2057
[47] = system: Staphylococcus aureus PCM 1944

Measured: MIC

CC[C@H](C)[C@H](NC(=O)CN)C(=O)N[C@@H](CCSC)C(=O)N[C@@H](CC(=O)O)C(=O)N[C@@H](CO)C(=O)N[C@H](C(=O)N[C@@H](CCCCN)C(=O)NCC(=O)N[C@@H](C)C(=O)N[C@@H](C)C(=O)N[C@@H](CCCCN)C(=O)N[C@@H](CCC(=O)O)C(=O)N[C@H](C(=O)N[C@@H](C)C(=O)NCC(=O)N[C@@H](Cc1cnc[nH]1)C(=O)N[C@@H](CC(C)C)C(=O)N[C@@H](CC(C)C)C(=O)N[C@@H](CC(=O)O)C(=O)N[C@@H](CC(N)=O)C(=O)N[C@@H](CC(C)C)C(=O)N[C@@H](CCCCN)C(=O)N[C@H]1CSSC[C@@H](C(=O)O)NC(=O)CNC(=O)[C@H]([C@@H](C)O)NC(=O)[C@H]([C@@H](C)CC)NC(=O)[C@H](CCCCN)NC1=O)[C@@H](C)CC)[C@@H](C)CC [GIMDSIKGAAKEIAGHLLDNLKCKITGC]
≥ 50 µM: [1]

CC[C@H](C)[C@H](NC(=O)[C@H](CCCCN)NC(=O)[C@H](CCCCN)NC(=O)[C@H](C)NC(=O)[C@H](Cc1ccccc1)NC(=O)[C@@H](NC(=O)[C@H](C)NC(=O)[C@H](CC(C)C)NC(=O)[C@H](CCCCN)NC(=O)[C@H](CCCCN)NC(=O)[C@H](C)NC(=O)[C@H](C)NC(=O)[C@H](CC(N)=O)NC(=O)[C@H](C)NC(=O)CN)[C@@H](C)O)C(=O)N[C@@H](Cc1ccccc1)C(=O)N[C@H](C(=O)N[C@@H](C)C(=O)N[C@@H](Cc1ccc(O)cc1)C(=O)N[C@@H](Cc1c[nH]c2ccccc12)C(=O)O)[C@@H](C)O [GANAAKKLATFAKKIFTAYW]
29.1 µM: [2] | [3] | [5] | [19]
14.5 µM: [4] | [14]
7.27 µM: [9] | [10] | [12] | [16] | [20]
≥ 116 µM: [13] | [15]
≥ 58.2 µM: [6] | [7] | [8] | [11] | [17] | [18]

CC(C)[C@H](NC(=O)[C@H](CS)NC(=O)[C@@H](NC(=O)[C@H](CCCN=C(N)N)NC(=O)[C@H](CCCCN)NC(=O)CNC(=O)[C@@H](N)CC(N)=O)C(C)C)C(=O)N[C@@H](CS)C(=O)N[C@@H](CCCN=C(N)N)C(N)=O [NGKRVCVCR]
≥ 96.7 µM: [21] | [22] | [24] | [26] | [28] | [29]
> 96.7 µM: [23] | [25] | [27] | [30]

CC[C@H](C)[C@@H]1NC(=O)[C@H](CC(=O)O)NC(=O)[C@@H](NC(=O)[C@@H](NC(=O)[C@H](C)N)[C@@H](C)O)CSSC[C@@H]2NC(=O)[C@H](CCC(N)=O)NC(=O)CNC(=O)CNC(=O)[C@H](CCCCN)NC(=O)[C@H](Cc3ccc(O)cc3)NC(=O)CNC(=O)[C@H](CCCCN)NC(=O)[C@H]([C@@H](C)CC)NC(=O)[C@H](C(C)C)NC(=O)[C@@H]3CSSC[C@@H](C(=O)N[C@@H](CCCN=C(N)N)C(=O)N[C@@H](CCCN=C(N)N)C(=O)O)NC(=O)[C@H](Cc4cnc[nH]4)NC(=O)[C@H](CSSC[C@H](NC(=O)CNC(=O)[C@H](C)NC(=O)[C@H](Cc4cnc[nH]4)NC(=O)[C@H](CC(N)=O)NC(=O)[C@@H]4CCCN4C(=O)[C@H]([C@@H](C)O)NC(=O)[C@H](C(C)C)NC(=O)[C@H](Cc4c[nH]c5ccccc45)NC(=O)[C@H](CCC(N)=O)NC(=O)[C@H](CO)NC(=O)[C@H](CCC(N)=O)NC(=O)[C@H](Cc4ccccc4)NC(=O)[C@H](CO)NC(=O)[C@H](CC(C)C)NC1=O)C(=O)N[C@@H](C)C(=O)N[C@@H](CC(C)C)C(=O)N[C@@H](Cc1cnc[nH]1)C(=O)N3)NC(=O)[C@H](C(C)C)NC(=O)[C@H]([C@@H](C)O)NC(=O)[C@H]([C@@H](C)CC)NC(=O)[C@H](CCCCN)NC2=O [ATCDILSFQSQWVTPNHAGCALHCVIKGYKGGQCKITVCHCRR]
0.424 µM: [44]
1.77 µM: [39]
0.212 µM: [31] | [32]
3.54 µM: [34] | [42] | [45]
5 µM: [33] | [35] | [36] | [37] | [38] | [41] | [43]
0.88 µM: [25]
> 5 µM: [40]

CC[C@H](C)[C@@H]1NC(=O)[C@H](CO)NC(=O)[C@H](CCCCN)NC(=O)[C@@H](NC(=O)[C@H](CCCN=C(N)N)NC(=O)[C@H](Cc2ccccc2)NC(=O)[C@H](Cc2cnc[nH]2)NC(=O)[C@@H](NC(=O)[C@H](CCCCN)NC(=O)[C@H](Cc2ccccc2)NC(=O)[C@@H]2CCCN2C(=O)[C@@H](NC(=O)[C@H](CC(N)=O)NC(=O)[C@H](C)NC(=O)[C@H](C)N)[C@@H](C)CC)C(C)C)CSSC[C@@H](C(=O)O)NC(=O)[C@H](Cc2ccccc2)NC1=O [AANIPFKVHFRCKSIFC]
≥ 505 µM: [46] | [47]
